Results on 14 compounds are retold here after PubChem BioAssay (NCI).

Common to all, as to assay: growth of human tumour cells (NCI), 48 h
Assay [1] relates to DU-145 prostate.
The subject of assay [2] is KM12 colon.
Assay [3] deals with SW-620 colon.
In assay [4] the test system is CAKI-1 renal.
Assay [5] relates to UACC-257 melanoma.
The test system of assay [6] is UO-31 renal.
The subject of assay [7] is HCT-15 colon.
The subject of assay [8] is MOLT-4 leukemia.
The subject of assay [9] is A549 NSCLC.
For assay [10], the system named is SF-539 CNS.
In assay [11] the test system is SK-OV-3 ovarian.
For assay [12], the system named is COLO 205 colon.
Assay [13] has as its system SF-268 CNS.
In assay [14] the test system is SR leukemia.
Assay [15] has as its system 786-0 renal.
The subject of assay [16] is HCT-116 colon.
The subject of assay [17] is SK-MEL-2 melanoma.
For assay [18], the system named is ACHN renal.
Assay [19] deals with MDA-N.
Assay [20] concerns HOP-62 NSCLC.

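Step 1: Grow cells in 96-well plates. Step 2: Expose to compound for 48 hours at 5 concentrations. Step 3: Interpolate endpoints linearly; if unreached, use highest concentration. At the TGI there is no net growth.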 Where a SMILES comes first, the peptide text is derived from it. The star is where a group is joined. Fmoc = O=C(OCC1c2ccccc2-c2ccccc21)*; Boc = CC(C)(C)OC(=O)* Bounds are passed on as bounds.

As for `COc1cc2c3c4c1OCc1c5c(cc(c1-4)CC3[N+](C)(C)CC2)OCO5` (stereo not drawn), the TGI in [1], in assay [2], in assay [3], in assay [4], in assay [5] and in [6] was above 100 µM in each case. Besides, the TGI in assay [7] is above 100 µM; in assay [8], above 100 µM; in [9] it was above 100 µM; in assay [10] it was above 96.6 µM; in assay [11], above 100 µM; in assay [12], above 100 µM. The TGI in assay [13] is 16.9 µM; in assay [14], above 100 µM; in assay [15], above 63.5 µM; in assay [16], above 100 µM; in assay [17], above 100 µM; in [18], above 100 µM. Also, the TGI in assay [19] and in assay [20] was above 100 µM each time.

Regarding `CCOC(=O)/C=C1\C[C@H](NC(=O)OCc2ccccc2)C(=O)N1CC(=O)OCC`, the TGI in assay [1], in assay [2], in assay [3], in assay [4], in assay [5] and in assay [6] was above 100 µM throughout. Further, the TGI in [7], in assay [8], in assay [9], in assay [10], in [11] and in assay [12] was above 100 µM throughout. Besides, the TGI in assay [13], in assay [14], in assay [15], in assay [16], in assay [17] and in assay [18] was above 100 µM throughout. Further, the TGI in assay [19] and in [20] was above 100 µM each time.

Turning to `CC1OC(n2cnc3c(N)nc(Cl)nc32)C(C)(O)C1O` (stereo not drawn), the TGI in [1], in [2], in assay [3], in [4], in [5] and in assay [6] was above 25 µM each time. Further, the TGI in [7], in assay [8], in assay [9], in assay [10], in [11] and in assay [12] was above 25 µM each time. The TGI in assay [13], in [14], in [15], in [16], in [17] and in assay [18] was above 25 µM each time. Further, the TGI in assay [19] and in assay [20] was above 25 µM each time.

Turning to `CC(C)(C)OC(=O)NCCCCC(NC(=O)C(Cc1c[nH]c2ccccc12)NC(=O)OCC1c2ccccc2-c2ccccc21)C(=O)O` (stereo not drawn) (Fmoc-Trp-Lys(Boc)-OH; configuration not given here), the TGI in assay [1] is above 100 µM; in assay [2], above 100 µM; in assay [3] it was above 100 µM; in assay [4], 31.5 µM; in assay [5], above 100 µM; in assay [6], above 100 µM. Also, the TGI is above 100 µM in [7]; 48.2 µM in assay [8]; above 100 µM in assay [9]; above 100 µM in assay [10]; 35.6 µM in assay [11]; above 100 µM in [12]. The TGI is above 100 µM in assay [13]; 59.3 µM in [14]; above 100 µM in assay [15]; above 100 µM in assay [16]; 54.9 µM in assay [17]; above 100 µM in [18]. Besides, the TGI in assay [19] and in [20] was above 100 µM each time.

Take `Cc1cc(C)nc(NS(=O)(=O)c2ccc(NC(=O)c3ccc4nc5ccccc5c(Nc5ccc(S(=O)(=O)Nc6nc(C)cc(C)n6)cc5)c4c3)cc2)n1`: the TGI in assay [1], in assay [2], in [3], in [4], in [5] and in assay [6] was above 100 µM throughout. In addition, the TGI is above 100 µM in [7]; 78.1 µM in assay [8]; above 100 µM in [9]; above 100 µM in assay [10]; above 100 µM in assay [11]; above 100 µM in assay [12]. Further, the TGI in assay [13], in assay [14], in [15], in [16], in assay [17] and in assay [18] was above 100 µM each time. Further, the TGI in assay [19] and in [20] was above 100 µM each time.

As for `Cc1ccc2c(c1)C/C(=C\c1ccccc1C(=O)O)C2=O`, the TGI in assay [1], in assay [2], in assay [3], in assay [4], in assay [5] and in [6] was above 100 µM in each case. The TGI in assay [7], in [8], in assay [9], in assay [10], in assay [12] and in [13] was above 100 µM each time. Besides, the TGI in assay [14] was 91.3 µM; in assay [15], above 100 µM; in assay [16] it was above 100 µM; in [17], above 100 µM; in assay [18] it was above 100 µM; in assay [19], above 100 µM. The compound further gave a TGI in assay [20] above 100 µM.

For `CCCCn1c2c(n(CCCC)c1=[Se])-c1c(n(CCCC)c(=[Se])n1CCCC)S[Se][Se]S2`, the TGI in [1] was 63.4 µM; in assay [2], above 59.3 µM; in assay [3] it was 19.6 µM; in [4], 17.7 µM; in assay [5] it was above 100 µM; in assay [6], above 44.2 µM. The TGI was 27.9 µM in [7]; above 90.6 µM in [8]; above 61.3 µM in assay [9]; 42.8 µM in [10]; 58 µM in [11]; 39.4 µM in assay [12]. Also, the TGI in assay [13] is above 100 µM; in assay [14], above 100 µM; in assay [15] it was above 72.6 µM; in assay [16], above 56.2 µM; in [17], 45.9 µM; in [18] it was 30.9 µM. The TGI in assay [19] was above 100 µM; in [20], 49.1 µM.

Regarding `N#Cc1c(Nc2ccccc2)[n+]([O-])c2ccc(Cl)cc2[n+]1[O-]`, the TGI in [1] is above 96.4 µM; in [2], above 100 µM; in assay [3] it was above 100 µM; in assay [4], above 100 µM; in assay [5], above 25.3 µM; in assay [6] it was above 29.4 µM. In addition, the TGI is 6.53 µM in [7]; above 100 µM in assay [8]; above 60.8 µM in assay [9]; 21.4 µM in assay [10]; above 100 µM in [11]; 8.03 µM in assay [12]. Moreover, the TGI in assay [13] was above 48.6 µM; in [14], above 27.7 µM; in assay [15], 34 µM; in assay [16] it was 33.1 µM; in assay [17], above 72 µM; in assay [18], 68.5 µM. Moreover, the TGI is above 100 µM in [19] and above 69.9 µM in assay [20].

Turning to `Cc1cn(C2CC(O)C(Cn3nncc3Cn3ccc(=O)[nH]c3=O)O2)c(=O)[nH]c1=O` (stereo not drawn), the TGI in [1], in assay [2], in assay [3], in [4], in assay [5] and in assay [6] was above 100 µM in each case. Further, the TGI in [7], in assay [8], in assay [9], in assay [10], in [11] and in [12] was above 100 µM throughout. Besides, the TGI in assay [13], in [14], in assay [15], in [16], in [17] and in [18] was above 100 µM in each case. The TGI in [19] and in assay [20] was above 100 µM throughout.

Take `Nc1c(O)c(C(=O)O)cc2ccccc12`: the TGI is 35.9 µM in assay [1]; above 100 µM in [2]; 32.3 µM in [3]; 53.8 µM in assay [4]; 38.4 µM in assay [5]; above 100 µM in [6]. The TGI was above 100 µM in assay [7]; 83.8 µM in [8]; above 100 µM in assay [9]; above 100 µM in [10]; above 100 µM in [11]; 64.1 µM in assay [12]. The TGI in [13] was above 100 µM; in assay [14] it was above 100 µM; in [15], 36.4 µM; in [16], 32.2 µM; in [17], 35 µM; in [18], 64.3 µM. Also, the TGI in assay [19] is 32.3 µM; in assay [20], above 100 µM.

For the compound `CC1(C)N=C(N)N=C(N)N1CCCCc1ccccc1`, the TGI in [1] was above 100 µM; in assay [2] it was above 100 µM; in assay [3], above 100 µM; in assay [4], above 100 µM; in assay [5], above 75.9 µM; in assay [6] it was above 100 µM. Further, the TGI in assay [7] was above 100 µM; in assay [8], above 91.6 µM; in [9] it was above 100 µM; in assay [10], 32.4 µM; in [11], 97.5 µM; in assay [12], above 51.6 µM. Moreover, the TGI in assay [13], in [14], in assay [15], in [16], in assay [17] and in [18] was above 100 µM in each case. Also, the TGI in assay [19] and in assay [20] was above 100 µM in each case.

For the compound `CCOC(=O)c1c(CN2CCOCC2)n(Cc2ccccc2)c2c1cc(O)c1nc(C)c(C)nc12`, the TGI in [1] is above 100 µM; in assay [2], above 100 µM; in assay [3], above 100 µM; in assay [4], 64.9 µM; in [5], above 100 µM; in [6] it was above 100 µM. For the same compound, the TGI in assay [7] is above 100 µM; in assay [8] it was above 100 µM; in [9] it was above 100 µM; in assay [10], 87 µM; in assay [11], above 100 µM; in [12] it was above 100 µM. Besides, the TGI in [13] was 54.4 µM; in assay [14], above 100 µM; in [15], 68.7 µM; in [16] it was above 100 µM; in assay [17], 44.5 µM; in [18], above 100 µM. Besides, the results for the TGI in assay [19] and in assay [20] were above 100 µM and 51.1 µM, respectively.

As to `CC(=O)NC1=CC(=O)C=C(Cl)C1=O`, the TGI in assay [1] is above 100 µM; in [2] it was above 100 µM; in [3] it was 37 µM; in assay [4], above 100 µM; in assay [5], above 100 µM; in [6] it was above 100 µM. Moreover, the TGI in assay [7] was above 100 µM; in [8], 50.9 µM; in [9], above 100 µM; in assay [10], above 100 µM; in assay [11], above 100 µM; in assay [12] it was above 100 µM. Further, the TGI in [13] is above 100 µM; in assay [14], 48.3 µM; in [15], above 100 µM; in [16], above 100 µM; in assay [17], above 100 µM; in assay [18], above 100 µM. Also, the values for the TGI in assay [19] and in assay [20] were 31 µM and above 100 µM, respectively.

As to `O=Cc1ccc2[nH]c(=O)oc2c1`, the TGI in assay [1] was above 100 µM; in assay [2] it was above 100 µM; in [3], above 100 µM; in assay [4] it was above 100 µM; in [5] it was above 100 µM; in [6] it was 82.7 µM. The TGI in [7], in [8], in assay [10], in [11], in [12] and in assay [13] was above 100 µM each time. For the same compound, the TGI in assay [14], in assay [15], in [16], in assay [17], in assay [18] and in assay [19] was above 100 µM each time. The same compound showed a TGI in [20] above 100 µM.
